# Experimental data reported in ChEMBL document CHEMBL1201862, “PubChem BioAssay data set” (2004).
#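 A five-concentration, 48-hour dose response in 96-well plates underlies each endpoint, interpolated linearly between surrounding concentrations. At the GI50, growth is halved.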 Active and inactive are the calls of the source. Rule as the data show it: active = GI50 up to about 1.1 µM and inactive = higher.
# Columns and labels:
# Assay in all cases: NCI tumour cell line growth inhibition, 48 h
# 786-0 = system: 786-0
# BT-549 = system: BT-549
# CAKI-1 = system: CAKI-1
# DLD-1 = system: DLD-1
# DMS-273 = system: DMS-273
# DU-145 = system: DU-145
# HCT-116 = system: HCT-116
# HT-29 = system: HT-29
# Hs-578T = system: Hs-578T
# M14 = system: M14
# MCF7 = system: MCF7
# MOLT-4 = system: MOLT-4
# NCI-H23 = system: NCI-H23
# NCI/ADR-RES = system: NCI/ADR-RES
# OVCAR-8 = system: OVCAR-8
# RPMI-8226 = system: RPMI-8226
# SF-268 = system: SF-268
# SK-MEL-2 = system: SK-MEL-2
# SK-MEL-5 = system: SK-MEL-5
# SN12C = system: SN12C
# SR = system: SR
# SW-620 = system: SW-620
# A498 = system: A498
# A549 = system: A549
# ACHN = system: ACHN
# CCRF-CEM = system: CCRF-CEM
# COLO 205 = system: COLO 205
# EKVX = system: EKVX
# HCC 2998 = system: HCC 2998
# HCT-15 = system: HCT-15
# HL-60 = system: HL-60
# HOP-62 = system: HOP-62
# HOP-92 = system: HOP-92
# IGROV-1 = system: IGROV-1
# K562 = system: K562
# KM12 = system: KM12
# LOX IMVI = system: LOX IMVI
# MDA-MB-231 = system: MDA-MB-231
# MDA-MB-435 = system: MDA-MB-435
# MDA-N = system: MDA-N
# Malme-3M = system: Malme-3M
# NCI-H226 = system: NCI-H226
# NCI-H460 = system: NCI-H460
# NCI-H522 = system: NCI-H522
# OVCAR-3 = system: OVCAR-3
# OVCAR-4 = system: OVCAR-4
# OVCAR-5 = system: OVCAR-5
# PC-3 = system: PC-3
# RXF 393 = system: RXF 393
# SF-295 = system: SF-295
# SF-539 = system: SF-539
# SK-MEL-28 = system: SK-MEL-28
# SK-OV-3 = system: SK-OV-3
# SNB-19 = system: SNB-19
# SNB-75 = system: SNB-75
# T47D = system: T47D
# TK-10 = system: TK-10
# U-251 = system: U-251
# UACC-257 = system: UACC-257
# UACC-62 = system: UACC-62
# UO-31 = system: UO-31
smiles,measurement,setting,value
COc1ccc2c(c1)-c1nn(CCCN(C)C)c3ccc([N+](=O)[O-])c(c13)N2,GI50,786-0,0.0991 µM (active)
same,GI50,BT-549,1.23 µM (inactive)
same,GI50,CAKI-1,0.261 µM (active)
same,GI50,DLD-1,0.181 µM (active)
same,GI50,DMS-273,0.161 µM (active)
same,GI50,DU-145,0.254 µM (active)
same,GI50,HCT-116,0.0787 µM (active)
same,GI50,HT-29,0.102 µM (active)
same,GI50,Hs-578T,0.48 µM (active)
same,GI50,M14,0.361 µM (active)
same,GI50,MCF7,0.239 µM (active)
same,GI50,MOLT-4,0.106 µM (active)
same,GI50,NCI-H23,0.398 µM (active)
same,GI50,NCI/ADR-RES,0.124 µM (active)
same,GI50,OVCAR-8,0.121 µM (active)
same,GI50,RPMI-8226,0.201 µM (active)
same,GI50,SF-268,0.207 µM (active)
same,GI50,SK-MEL-2,0.676 µM (active)
same,GI50,SK-MEL-5,0.33 µM (active)
same,GI50,SN12C,0.103 µM (active)
same,GI50,SR,0.13 µM (active)
same,GI50,SW-620,0.0719 µM (active)
CC1=CC[C@@]2(C)[C@@H]([C@@H]1C)[C@H]1CC[C@@H]3[C@@]4(C)CC[C@H](O)C(C)(C)[C@@H]4CC[C@@]3(C)[C@]1(C)C[C@@H]2O,GI50,786-0,12.4 µM (inactive)
same,GI50,A498,> 20.7 µM (inactive)
same,GI50,A549,12.6 µM (inactive)
same,GI50,ACHN,9.62 µM (inactive)
same,GI50,BT-549,29.1 µM (inactive)
same,GI50,CAKI-1,37.2 µM (inactive)
same,GI50,CCRF-CEM,5.38 µM (inactive)
same,GI50,COLO 205,15 µM (inactive)
same,GI50,DU-145,8 µM (inactive)
same,GI50,EKVX,5.61 µM (inactive)
same,GI50,HCC 2998,17.7 µM (inactive)
same,GI50,HCT-116,22.2 µM (inactive)
same,GI50,HCT-15,26.1 µM
same,GI50,HL-60,50.1 µM (inactive)
same,GI50,HOP-62,13.5 µM (inactive)
same,GI50,HOP-92,25.6 µM (inactive)
same,GI50,HT-29,11.6 µM (inactive)
same,GI50,Hs-578T,37 µM (inactive)
same,GI50,IGROV-1,17.1 µM (inactive)
same,GI50,K562,4.2 µM (inactive)
same,GI50,KM12,23.3 µM (inactive)
same,GI50,LOX IMVI,5.53 µM (inactive)
same,GI50,M14,6.52 µM (inactive)
same,GI50,MCF7,35.2 µM (inactive)
same,GI50,MDA-MB-231,8.2 µM (inactive)
same,GI50,MDA-MB-435,20.2 µM (inactive)
same,GI50,MDA-N,32.4 µM (inactive)
same,GI50,MOLT-4,13.9 µM (inactive)
same,GI50,Malme-3M,30.4 µM (inactive)
same,GI50,NCI-H226,27.2 µM (inactive)
same,GI50,NCI-H23,25.6 µM (inactive)
same,GI50,NCI-H460,19.1 µM (inactive)
same,GI50,NCI-H522,2.52 µM (inactive)
same,GI50,NCI/ADR-RES,21.8 µM (inactive)
same,GI50,OVCAR-3,18.9 µM (inactive)
same,GI50,OVCAR-4,24.3 µM (inactive)
same,GI50,OVCAR-5,> 50.8 µM (inactive)
same,GI50,OVCAR-8,14.1 µM (inactive)
same,GI50,PC-3,18.6 µM (inactive)
same,GI50,RPMI-8226,9.23 µM (inactive)
same,GI50,RXF 393,10.4 µM (inactive)
same,GI50,SF-268,9.79 µM (inactive)
same,GI50,SF-295,13.2 µM (inactive)
same,GI50,SF-539,27 µM (inactive)
same,GI50,SK-MEL-28,6.44 µM (inactive)
same,GI50,SK-MEL-2,24.8 µM (inactive)
same,GI50,SK-MEL-5,13.7 µM (inactive)
same,GI50,SK-OV-3,> 44.7 µM (inactive)
same,GI50,SN12C,6.61 µM (inactive)
same,GI50,SNB-19,37.8 µM (inactive)
same,GI50,SNB-75,30.3 µM (inactive)
same,GI50,SR,3.46 µM (inactive)
same,GI50,SW-620,33.6 µM (inactive)
same,GI50,T47D,23 µM (inactive)
same,GI50,TK-10,> 39.5 µM (inactive)
same,GI50,U-251,7.94 µM (inactive)
same,GI50,UACC-257,17.4 µM (inactive)
same,GI50,UACC-62,> 45.8 µM (inactive)
same,GI50,UO-31,> 100 µM (inactive)
